The values below come from patent US20240173363A1, “MICROBIOME COMPOSITION OF HALOPHILIC BACILLUS VELEZENSIS KMU01 STRAIN FERMENTED CULTURE SUPERNATANT WITH ANTI-OBESITY EFFECT” (KOOKMINBIO, CORP., priority 2022, published 2024).

This assay has as its system C57BL/6J mice. Nature of the assay: Biochemical analysis of blood (plasma). The format is in vivo. As to conditions: HFD mice. The procedure: When brought in, the animal was inspected and weighed. […] Xenical was used as a positive control. […] Blood glucose, AST, ALT, and BUN were measured using a chemical analyzer (Fuji DRI-CHEM 3500i, Fuji Photo Film, Ltd., Tokyo, Japan), total cholesterol and high density lipoprotein (HDL)-cholesterol (hereinafter referred to as HDL-C) were measured using a LabAssay™ Cholesterol kit (Wako, Osaka, Japan), and a low-density lipoprotein (LDL)-cholesterol (hereinafter referred to as LDL-C) was calculated using the following Equation 2. In addition, TG was analyzed using TG assay kits (Abcam, Cambridge, MA), respectively. LDL-C=Total cholesterol−{(HDL-C)+(TG/5)} [EQUATION 2]

For `CCCCCCCCCCC[C@@H](C[C@@H]1OC(=O)[C@H]1CCCCCC)OC(=O)[C@H](CC(C)C)NC=O` [Xen], the “blood TG compared to the high-fat diet group” value (Xenical 50 mg/kg/day, 13 weeks, p<0.05) is on record as “significantly reduced”. Besides, for the setting “plasma, 13 weeks oral, calculated by Equation 2, mean ± SD”, the LDL-C was 31.55 ± 17.44 mg/dL.
